# Laboratory results from US6221914A, “Sulfonamide bridging compounds that inhibit tryptase activity” (Array Biopharma Inc., priority 1998, dated 2001).
# Columns and labels:
# Assay type in all cases: biochemical
# [1] = target: T1, Human Neutrophil Cathepsin G (Homo sapiens, UniProt P08311); experiment: Ki determination, human neutrophil cathepsin G (N-Suc-Ala-Ala-Pro-Phe-pNA); settings: 625 mM Tris-HCl, pH 7.5, 2.5 mM MgCl2, 0.125% Brij 35; read-out: Experimentally Determined Ki, Cathepsin G
# T1 construct: from tissue; host or cells: human neutrophils
# T1 sequence (P08311 21-255): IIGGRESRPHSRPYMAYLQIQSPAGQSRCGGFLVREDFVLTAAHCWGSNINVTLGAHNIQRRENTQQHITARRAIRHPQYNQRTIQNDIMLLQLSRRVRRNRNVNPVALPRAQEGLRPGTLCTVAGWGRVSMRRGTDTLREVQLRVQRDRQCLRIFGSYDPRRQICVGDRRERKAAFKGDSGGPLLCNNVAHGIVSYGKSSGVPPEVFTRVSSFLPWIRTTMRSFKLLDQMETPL
# Method: (§1) Protease inhibition was assayed according to published procedures with minor modifications using various proteases and specific chromogenic peptide p-nitroanilide substrates. Assays were performed in Costar ultra-low cluster 96-well microtiter plate (Costar Corning Corp., Cambridge Mass.). Each protease was incubated with various concentrations of the test compound for 15 min. at 37° C. or as otherwise indicated, in specific assay buffer, and the residual activity was then measured by addition of the substrate. p-Nitroaniline produced by the proteolysis was determined by measuring the change in absorbance at 405 nm on a SpectraMAX 340 plate reader (Molecular devices, Sunnyvale, Calif.).
# (§2) 1. The inhibition constant, Ki is calculated from individual data points using the equation for a tight-binding inhibitor (See Beith, "Proteinase Inhibitors-Proceedings of 2nd Int. Res. Conference", Fritz, et al. eds, New York, p.4463-4469 (1974)):
# (§3) vi /vo [((Ki '+[I]+[E]o)^2 -4 [I]o
# (§4) [E]o)^1/2 (Ki '+[I]o -[E]o)]/2[E]o
# (§5) where Ki ' is apparent inhibition constant; vi and vo are the inhibited and uninhibited rates, respectively; [I]o and [E]o are the total concentrations of inhibitor and enzyme, respectively.
# (§6) [note: [E]o is determined by active site titration of enzyme]
# (§7) The Ki values are obtained by correcting Ki ' values for the effect of substrate concentration according to: [formula]
# (§8) 2. Other inhibition data (Ki >>[E]o), the Ki is calculated from using the equations for a competitive inhibitor: [formula]
# Human Neutrophil Cathepsin G activity was determined by using N-Suc-Ala-Ala-Pro-Phe-pNA in 625 mM Tris-HCl, pH 7.5, 2.5 mM MgCl2, 0.125% Brij 35 (See Groutas et al., Arch. Biochem. Biophys. 294, 144-146 (1992)).
# (§9) The inhibition constant (Ki) of the test compounds against each proteolytic enzyme was determined according to Zitnik et al., Biochem. Biophys. Res. Commun. 232, 687-697 (1997)).
# [2] = target: T2, Bovine Pancreatic Chymotrypsin (Bos taurus, UniProt P00766); experiment: Ki determination, bovine pancreatic chymotrypsin (N-Suc-Ala-Ala-Pro-Phe-pNA); settings: 100 mM Tris-HCl, pH 7.8, 10 mM CaCl2; read-out: Experimentally Determined Ki, Chymotrypsin
# T2 construct: from tissue; host or cells: bovine pancreas
# Method: as §1, §2, §3, §4, §5, §6, §7, §8
# Bovine Pancreatic Chymotrypsin activity was determined by using N-Suc-Ala-Ala-Pro-Phe-pNA in 100 mM Tris-HCl, pH 7.8, 10 mM CaCl2 (See Delmar, et al., J. Biochem. 85, 157-162 (1979)).
# as §9
# [3] = target: T3, Bovine pancreatic Trypsin (Bos taurus, UniProt P00760); experiment: Ki determination, bovine pancreatic trypsin (N-a-Benzoyl-L-Arg-pNA); settings: 50 mM Tris-HCl, pH 8.2, 20 mM CaCl2; read-out: Experimentally Determined Ki, Trypsin
# T3 construct: from tissue; host or cells: bovine pancreas
# T3 sequence (P00760 24-246): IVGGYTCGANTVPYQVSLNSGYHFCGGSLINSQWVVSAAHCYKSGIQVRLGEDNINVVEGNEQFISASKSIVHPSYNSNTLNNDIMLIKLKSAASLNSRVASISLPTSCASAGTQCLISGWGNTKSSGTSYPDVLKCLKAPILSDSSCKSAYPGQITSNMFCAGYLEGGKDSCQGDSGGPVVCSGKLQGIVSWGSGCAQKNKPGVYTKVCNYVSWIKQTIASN
# Method: as §1, §2, §3, §4, §5, §6, §7, §8
# Bovine pancreatic Trypsin (TPCK-treated) activity was determined by using N-a-Benzoyl-L-Arg-pNA in 50 mM Tris-HCl, pH 8.2, 20 mM CaCl2 (See Somorin, et al., J. Biochem. 85, 157-162 (1979)).
# as §9
# Human plasma factor Xa = target: T4, Human plasma factor Xa (Homo sapiens, UniProt P00742); experiment: Ki determination, human plasma factor Xa (N-Benzoyl-Ile-Glu-Gly-Arg-pNA); settings: 50 mM Tris-HCl, pH 7.8, 200 mM NaCl, 0.05% BSA; read-out: Experimentally Determined Ki, Factor Xa
# T4 construct: from tissue; host or cells: human plasma
# T4 sequence (P00742 235-488 limits assumed): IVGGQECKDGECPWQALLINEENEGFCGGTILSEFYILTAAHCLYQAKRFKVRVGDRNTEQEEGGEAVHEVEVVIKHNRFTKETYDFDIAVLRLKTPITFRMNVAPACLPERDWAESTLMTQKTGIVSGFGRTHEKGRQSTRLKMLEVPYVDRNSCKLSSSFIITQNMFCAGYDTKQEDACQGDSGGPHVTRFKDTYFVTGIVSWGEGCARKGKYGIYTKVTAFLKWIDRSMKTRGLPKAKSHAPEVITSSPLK
# T4 sequence (P00742 41-179 partner limits assumed): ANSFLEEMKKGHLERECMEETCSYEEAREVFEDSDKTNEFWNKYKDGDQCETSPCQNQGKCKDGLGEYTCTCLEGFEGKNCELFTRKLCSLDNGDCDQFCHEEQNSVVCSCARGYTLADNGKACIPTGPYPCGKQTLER
# Method: as §1, §2, §3, §4, §5, §6, §7, §8
# Human plasma factor Xa activity was determined by using N-Benzoyl-Ile-Glu-Gly-Arg-pNA in 50 mM Tris-HCl, pH 7.8, 200 mM NaCl, 0.05% BSA (See Lottenberg, et al. Meth. Enzymol. 80, 341-361 (1981)).
# as §9
# Human plasma plasmin = target: T5, Human plasma plasmin (Homo sapiens, UniProt P00747); experiment: Ki determination, human plasma plasmin (Tosyl-Gly-Pro-Lys-pNA); settings: 100 mM Tris-HCl, pH 7.4, 100 mM NaCl, 0.05% Triton X-100; read-out: Experimentally Determined Ki, Plasmin
# T5 construct: from tissue; host or cells: human plasma
# T5 sequence (P00747 581-810 limits assumed): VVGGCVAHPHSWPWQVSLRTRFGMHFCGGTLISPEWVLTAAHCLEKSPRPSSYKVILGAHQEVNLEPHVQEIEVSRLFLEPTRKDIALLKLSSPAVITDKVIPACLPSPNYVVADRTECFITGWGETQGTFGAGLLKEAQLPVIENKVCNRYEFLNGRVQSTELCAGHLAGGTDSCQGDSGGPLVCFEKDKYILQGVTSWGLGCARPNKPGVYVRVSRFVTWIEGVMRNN
# T5 sequence (P00747 97-580 partner limits assumed): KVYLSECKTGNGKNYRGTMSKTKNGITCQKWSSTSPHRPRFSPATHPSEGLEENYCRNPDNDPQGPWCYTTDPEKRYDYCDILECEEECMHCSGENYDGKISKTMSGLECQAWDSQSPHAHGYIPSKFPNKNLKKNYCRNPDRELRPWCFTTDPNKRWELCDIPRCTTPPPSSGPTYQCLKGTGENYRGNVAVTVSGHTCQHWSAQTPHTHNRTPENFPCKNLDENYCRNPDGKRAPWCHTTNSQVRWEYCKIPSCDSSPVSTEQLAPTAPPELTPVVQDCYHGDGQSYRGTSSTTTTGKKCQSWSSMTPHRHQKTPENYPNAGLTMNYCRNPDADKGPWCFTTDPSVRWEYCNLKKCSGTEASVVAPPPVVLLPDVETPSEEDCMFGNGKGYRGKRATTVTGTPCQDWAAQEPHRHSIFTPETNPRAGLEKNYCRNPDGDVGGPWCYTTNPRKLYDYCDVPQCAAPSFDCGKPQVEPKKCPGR
# Method: as §1, §2, §3, §4, §5, §6, §7, §8
# Human plasma plasmin activity was determined by using Tosyl-Gly-Pro-Lys-pNAin 100 mM Tris-HCl, pH 7.4, 100 mM NaCl, 0.05% Triton X-100 (See Lottenberg, et al., Meth. Enzymol. 80, 341-361 (1981)).
# as §9
# [4] = target: T6, Human Neutrophil elastase (Homo sapiens, UniProt P08246); experiment: Ki determination, human neutrophil elastase (pyroGlu-Pro-Val-pNA); settings: 100 mM Tris-HCl, pH 8.3, 0.96 M NaCl, 1% BSA; read-out: Experimentally Determined Ki, Elastase
# T6 construct: from tissue; host or cells: human neutrophils
# T6 sequence (P08246 30-267): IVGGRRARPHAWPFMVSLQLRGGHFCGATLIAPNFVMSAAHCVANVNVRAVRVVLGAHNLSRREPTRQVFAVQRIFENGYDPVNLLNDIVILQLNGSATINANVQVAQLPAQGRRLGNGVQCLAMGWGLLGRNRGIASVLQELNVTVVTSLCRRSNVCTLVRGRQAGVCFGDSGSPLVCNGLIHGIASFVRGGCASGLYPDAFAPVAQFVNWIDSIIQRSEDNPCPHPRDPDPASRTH
# Method: as §1, §2, §3, §4, §5, §6, §7, §8
# Human Neutrophil elastase activity was determined by using pyroGlu-Pro-Val-pNA in 100 mM Tris-HCl, pH 8.3, 0.96 M NaCl, 1% BSA (See Kramps, et al. Scand. J. Clin. Lab. Invest. 43, 427-432 (1983)).
# as §9
Ki [1] [µM],Ki [2] [µM],Ki [3] [µM],Ki (Human plasma factor Xa) [µM],Ki (Human plasma plasmin) [µM],Ki [4] [µM],SMILES
> 100,> 100,1.1,8.3,8.7,> 100,"N=C(N)c1cccc(C(=O)NCc2ccc(OCCCCCCCOc3ccc(CNC(=O)c4cccc(C(=N)N)c4)cc3)cc2)c1 [Example 59, 1,7-Bis-{4-[(3-carbamimidoyl-benzenecarbonylamino)-methyl]-phenoxy}-heptane]"
> 100,> 100,1.5,17.7,12,> 100,"N=C(N)c1ccc(C(=O)NCc2ccc(OCCCCOc3ccc(CNC(=O)c4ccc(C(=N)N)cc4)cc3)cc2)cc1 [Example 60, 1,4-Bis-{4-[(4-carbamimidoyl-benzenecarbonylamino)-methyl]-phenoxy}-butane]"
> 100,> 100,1.2,1,6,> 100,"N=C(N)c1cccc(C(=O)NCc2ccc(OCCCCOc3ccc(CNC(=O)c4cccc(C(=N)N)c4)cc3)cc2)c1 [Example 61, 1,4-Bis-{4-[(3-carbamimidoyl-benzenecarbonylamino)-methyl]-phenoxy}-butane]"
> 100,> 100,2.4,35,11.6,> 100,"N=C(N)c1ccc(C(=O)NCc2ccc(OCCCOc3ccc(CNC(=O)c4ccc(C(=N)N)cc4)cc3)cc2)cc1 [Example 62, 1,3-Bis-{4-[(4-carbamimidoyl-benzoylamino)-methyl]-phenoxy}-propane]"
> 100,> 100,1.4,35.3,6.5,> 100,"N=C(N)c1ccc(C(=O)NCc2ccc(OCCOc3ccc(CNC(=O)c4ccc(C(=N)N)cc4)cc3)cc2)cc1 [Example 64, 1,2-Bis-{4-[(4-carbamimidoyl-benzoylamino)-methyl]-phenoxy}-ethane]"
> 100,> 100,2.2,2.6,46,> 100,"N=C(N)c1cccc(C(=O)NCc2ccc(OCCOc3ccc(CNC(=O)c4cccc(C(=N)N)c4)cc3)cc2)c1 [Example 65, 1,2-Bis-{4-[(3-carbamimidoyl-benzoylamino)-methyl]-phenoxy}-ethane]"
> 100,> 100,3.2,20,10,> 100,"CN(Cc1ccc(OCCCOc2ccc(CN(C)S(=O)(=O)c3cccc(C(=N)N)c3)cc2)cc1)S(=O)(=O)c1cccc(C(=N)N)c1 [Example 68, 1,3-Bis-{4-[(3-carbamimidoyl-benzenesulfonyl-[N-methyl]-amino)-methyl]-phenoxy}-propane]"
> 100,> 100,0.83,> 100,> 100,> 100,"N=C(N)c1ccc(C(=O)NCc2cccc(OCCCCCOc3cccc(CNC(=O)c4ccc(C(=N)N)cc4)c3)c2)cc1 [Example 76, 1,5-Bis-{3-[(4-carbamimidoyl-benzenecarbonylamino)-methyl]-phenoxy}-pentane]"
> 100,> 100,1.4,1.9,4.3,> 100,"N=C(N)c1cccc(C(=O)NCc2cccc(OCCCCCOc3cccc(CNC(=O)c4cccc(C(=N)N)c4)c3)c2)c1 [Example 77, 1,5-Bis-{3-[(3-carbamimidoyl-benzenecarbonylamino)-methyl]-phenoxy}-pentane]"
> 100,> 100,1.1,2.2,5.2,> 100,"N=C(N)c1ccc(C(=O)NCc2ccc(OCCCOc3ccc(CNC(=O)c4cccc(C(=N)N)c4)cc3)cc2)cc1 [Example 85, 4-Carbamimidoyl-N-[4-(3-{4-[(3-carbamimidoyl-benzoylamino)-methyl]-phenoxy}-propoxy)-benzyl]-benzamide]"
